The values that follow come from patent publication US10266513B2 (Pfizer Inc., priority 2012, dated 2019).

Molecules are shown by their SMILES. pIC50: −log10 of the molar value. Where two headings read alike, the source gives them in different places.

One test relates to Human B cells. In words: Human Primary B Cell Proliferation Assay (3H-thymidine incorporation, anti-human IgM stimulated). The test is classed as cell-based. The settings on record: purified human B cells, 50 μg/mL anti-human IgM F(ab')2, 72 hours. Here is the method: Human Primary B Cell Proliferation Assay
Human B cells were purified from buffy coats using the human B cell RosetteSep kit per manufacturer's instructions. Purified cells were resuspended in RPMI-10% HIFCS, 2 mM L-glutamine, 100 U/mL penicillin, 100 μg/ml streptomycin, incubated with compounds for 1 hour at 37° C. and then stimulated with 50 μg/mL anti-human IgM F(ab′)2 for 72 hours. ^3H-thymidine was included in the culture media for the final 8-16 hours. Cells were harvested and ^3H-thymidine incorporation was measured.
Human B cell Proliferation Assay
Background: Uptake of a labelled nucleoside into DNA is a usual measure of proliferation.

Test [1] concerns the target human full-length BTK Kinase (Homo sapiens (Human), UniProt Q06187). In words: Human BTK LanthaScreen Assay (TR-FRET). Format: biochemical. The settings on record: 50 μM ATP, FAM-Srctide peptide substrate, read-out: BTK Inhibition IC50. The source says: Human BTK LanthaScreen Assay
A further test concerns human whole blood. In words: Human Whole Blood Histamine Assay (anti-IgE induced histamine release). The note with it: heparinized human whole blood, anti-human-IgE 2 μg/ml, histamine release by ELISA, read-out: HWB IC50. Format: cell-based. How it is done: Human Whole Blood Histamine Assay
Heparinized human whole blood (200 μl) was plated in 96-well V-bottom assay plates (VWR). Compounds diluted in 100% DMSO (1 μl) were added and incubated at 37° C. for 120 minutes. Anti-human-IgE antibody (KPL) was added to a final concentration of 2 μg/ml and assay plates incubated for 30 minutes at 37° C. Plates were spun at 2000 rpm for 8 minutes and the analyzed for histamine release by ELISA kits (Beckman Coulter).
Inhibition curves and IC50 values are determined using Excel-fit.
In general terms: ELISA stands for enzyme-linked immunosorbent assay.

In a further test the target is human EGFR kinase domain (Homo sapiens (Human), UniProt P00533). The test can be described thus: Human EGFR LanthaScreen Selectivity Assay (TR-FRET). Format: biochemical. The note with it: 20 μM ATP.
Sequence of human EGFR kinase domain (P00533 712-979): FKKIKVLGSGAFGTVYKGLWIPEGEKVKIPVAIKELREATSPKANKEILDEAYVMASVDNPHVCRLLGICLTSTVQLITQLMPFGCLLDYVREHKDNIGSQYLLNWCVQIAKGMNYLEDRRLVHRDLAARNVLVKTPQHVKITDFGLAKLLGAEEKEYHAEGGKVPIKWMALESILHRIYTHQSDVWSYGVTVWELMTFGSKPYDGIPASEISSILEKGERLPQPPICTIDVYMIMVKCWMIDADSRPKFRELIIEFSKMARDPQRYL

Sequence of human full-length BTK Kinase (Q06187 whole entry): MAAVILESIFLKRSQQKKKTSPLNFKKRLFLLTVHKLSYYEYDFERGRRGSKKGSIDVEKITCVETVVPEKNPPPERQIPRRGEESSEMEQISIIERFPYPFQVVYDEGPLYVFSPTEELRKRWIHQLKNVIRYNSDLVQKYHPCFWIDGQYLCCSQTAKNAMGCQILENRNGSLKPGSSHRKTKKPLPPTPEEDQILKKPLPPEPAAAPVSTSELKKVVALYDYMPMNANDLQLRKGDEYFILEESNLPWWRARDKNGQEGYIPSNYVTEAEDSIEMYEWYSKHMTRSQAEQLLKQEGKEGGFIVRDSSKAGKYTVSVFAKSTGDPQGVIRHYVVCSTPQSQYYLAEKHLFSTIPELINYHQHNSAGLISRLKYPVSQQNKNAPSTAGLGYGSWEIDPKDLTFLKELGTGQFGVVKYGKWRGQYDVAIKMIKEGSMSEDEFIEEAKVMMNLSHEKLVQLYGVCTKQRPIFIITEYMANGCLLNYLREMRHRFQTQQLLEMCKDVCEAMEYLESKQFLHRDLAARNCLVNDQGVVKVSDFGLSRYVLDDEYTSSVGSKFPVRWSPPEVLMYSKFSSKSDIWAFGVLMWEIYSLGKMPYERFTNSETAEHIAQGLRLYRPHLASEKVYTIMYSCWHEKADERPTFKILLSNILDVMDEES
Protocol for human EGFR kinase domain: The kinase reaction mixtures were incubated at room temperature for 60 minutes before stopping the kinase activity by the addition of 15 mM EDTA. The extent of peptide phosphorylation by EGFR was detected using a Terbium-conjugated anti-phospho-Tyrosine antibody (Tb-PT66 antibody, invitrogen # PV3557).

Turning to `N#CN1CCCC(n2nc(-c3ccc(Oc4ccccc4)cc3)c(C(N)=O)c2N)C1` (single isomer, unassigned) [Example 2], the pIC50 in the test with Human B cells (B-cell) is 9.30; in test [1], 9.43; in the test with human whole blood, 7.48; on human EGFR kinase domain, 5.77.

As for `N#CN1CCCC(n2nc(-c3ccc(Oc4ccc(Cl)cc4)cc3)c(C(N)=O)c2N)C1` (single isomer, unassigned) [Example 15], the pIC50 was 8.77 in the test with Human B cells (B-cell), 9.19 in test [1], 7.69 with human whole blood and 5.41 against human EGFR kinase domain.

`N#CN1CCCC(n2nc(-c3ccc(Oc4ccc(F)cc4F)cc3)c(C(N)=O)c2N)C1` (single isomer, unassigned) [Example 27]: the pIC50 in the test on Human B cells (B-cell) is 8.57; in test [1], 8.89; with human whole blood, 7.19; at human EGFR kinase domain, 4.77.

Regarding `N#CN1CCC[C@@H](n2nc(-c3ccc(Oc4ccc(Cl)cn4)cc3)c(C(N)=O)c2N)C1` [Example 110, (R)-5-amino-3-(4-((5-chloropyridin-2-yl)oxy)phenyl)-1-(1-cyanopiperidin-3-yl)-1H-pyrazole-4-carboxamide], the negative-log IC50 (pIC50) was 8.80 in the test with Human B cells (B-cell), 8.04 in test [1], 7.02 in the test with human whole blood and less than 4.81 against human EGFR kinase domain.

As to `N#CN1CCC[C@@H](n2nc(-c3ccc(Oc4cccc(C(F)(F)F)n4)cc3)c(C(N)=O)c2N)C1` [Example 116, (R)-5-amino-1-(1-cyanopiperidin-3-yl)-3-(4-((6-(trifluoromethyl)pyridin-2-yl)oxy)phenyl)-1H-pyrazole-4-carboxamide], the negative-log IC50 (pIC50) in the test on Human B cells (B-cell) was 7.83; in test [1], 8.59; with human whole blood, 7.38; on human EGFR kinase domain, less than 4.57.

For `N#CN1CCC[C@@H](n2nc(-c3ccc(Oc4ncc(Cl)cc4F)cc3)c(C(N)=O)c2N)C1` [Example 118, (R)-5-amino-3-(4-((5-chloro-3-fluoropyridin-2-yl)oxy)phenyl)-1-(1-cyanopiperidin-3-yl)-1H-pyrazole-4-carboxamide], the pIC50 with Human B cells (B-cell) is 7.53; in test [1], 8.12; with human whole blood, 7.30; at human EGFR kinase domain, less than 4.30.

In the case of `C=CC(=O)N1CCC[C@H](n2nc(-c3ccc(Oc4ccccc4)cc3)c(C(N)=O)c2N)C1` [Example 126, 1-[(3S)-1-acryloylpiperidin-3-yl]-5-amino-3-(4-phenoxyphenyl)-1H-pyrazole-4-carboxamide], the pIC50 with Human B cells (Homo sapiens, B-cell) is 7.68; in the test on human whole blood (Homo sapiens), 6.70; on human EGFR kinase domain, 6.10.

For `C=CC(=O)N1CCC[C@@H](n2nc(-c3ccc(Oc4ccc(Cl)cc4)cc3)c(C(N)=O)c2N)C1` [Example 130, 1-[(3R)-1-acryloylpiperidin-3-yl]-5-amino-3-[4-(4-chlorophenoxy)phenyl]-1H-pyrazole-4-carboxamide], the pIC50 with Human B cells (B-cell) was 9.82; in test [1] it was 9.77; with human whole blood it was 6.88; against human EGFR kinase domain it was 8.10.

As to `NC(=O)c1c(-c2ccc(Oc3ccc(Cl)cc3)cc2)nn([C@@H]2CCCN(C(=O)/C=C/CO)C2)c1N` [Example 131, 5-amino-3-[4-(4-chlorophenoxy)phenyl]-1-{(3R)-1-[(2E)-4-hydroxybut-2-enoyl]piperidin-3-yl}-1H-pyrazole-4-carboxamide], the pIC50 with Human B cells (B-cell) was 8.80; in test [1] it was 8.64; in the test with human whole blood, 6.59; against human EGFR kinase domain, 5.66.

For the molecule `C=CC(=O)N1CCC[C@H](n2nc(-c3ccc(Oc4ccc(F)cc4F)cc3)c(C(N)=O)c2N)C1` [Example 136, 1-[(3S)-1-acryloylpiperidin-3-yl]-5-amino-3-[4-(2,4-difluorophenoxy)phenyl]-1H-pyrazole-4-carboxamide], the pIC50 was 9.36 in the test with Human B cells (Homo sapiens, B-cell); 8.11 in test [1]; 6.24 in the test with human whole blood; 6.67 against human EGFR kinase domain.

In the case of `C=CC(=O)N1CCC[C@@H](n2nc(-c3ccc(Oc4ccc(F)cc4F)cc3)c(C(N)=O)c2N)C1` [Example 137, 1-[(3R)-1-acryloylpiperidin-3-yl]-5-amino-3-[4-(2,4-difluorophenoxy)phenyl]-1H-pyrazole-4-carboxamide], the pIC50 was 9.20 in the test on Human B cells, 9.60 in test [1], 7.50 in the test with human whole blood and 7.59 on human EGFR kinase domain.

Regarding `NC(=O)c1c(-c2ccc(Oc3ccc(F)cc3F)cc2)nn([C@@H]2CCCN(C(=O)/C=C/C(F)F)C2)c1N` [Example 144, 5-amino-1-{(3R)-1-[(2E)-4,4-difluorobut-2-enoyl]piperidin-3-yl}-3-[4-(2,4-difluorophenoxy)phenyl]-1H-pyrazole-4-carboxamide], the pIC50 with Human B cells (B-cell) was 9.08; in test [1], 9.39.

As to `NC(=O)c1c(-c2ccc(Oc3ccc(F)cc3F)cc2)nn([C@@H]2CCCN(C(=O)/C=C/CF)C2)c1N` [Example 145, 5-amino-3-[4-(2,4-difluorophenoxy)phenyl]-1-{(3R)-1-[(2E)-4-fluorobut-2-enoyl]piperidin-3-yl}-1H-pyrazole-4-carboxamide], the pIC50 with Human B cells (B-cell) is 7.93; in test [1], 8.55; in the test on human whole blood, 6.90; against human EGFR kinase domain it was 5.66.

On to `C=CC(=O)N1CCC[C@@H](n2nc(-c3ccc(Oc4ncc(Cl)cc4F)cc3)c(C(N)=O)c2N)C1` [Example 153, 1-[(3R)-1-acryloylpiperidin-3-yl]-5-amino-3-{4-[(5-chloro-3-fluoropyridin-2-yl)oxy]phenyl}-1H-pyrazole-4-carboxamide], for which the results for the pIC50 (with Human B cells (B-cell); in test [1]) were 9.25 and 9.32, respectively.

`NC(=O)c1c(-c2ccc(Oc3ncc(Cl)cc3F)cc2)nn([C@@H]2CCCN(C(=O)/C=C/C(F)F)C2)c1N` [Example 155, 5-amino-3-{4-[(5-chloro-3-fluoropyridin-2-yl)oxy]phenyl}-1-{(3R)-1-[(2E)-4,4-difluorobut-2-enoyl]piperidin-3-yl}-1H-pyrazole-4-carboxamide]: the pIC50 with Human B cells (B-cell) is 8.70; in test [1], 9.15; against human EGFR kinase domain, 6.97.

Regarding `NC(=O)c1c(-c2ccc(Oc3ncc(Cl)cc3F)cc2)nn([C@@H]2CCCN(C(=O)/C=C/CF)C2)c1N` [Example 156, 5-amino-3-{4-[(5-chloro-3-fluoropyridin-2-yl)oxy]phenyl}-1-{(3R)-1-[(2E)-4-fluorobut-2-enoyl]piperidin-3-yl}-1H-pyrazole-4-carboxamide], the pIC50 in the test with Human B cells (B-cell) was 8.60; in test [1], 8.85; on human EGFR kinase domain it was 6.42.

As to `NC(=O)c1c(-c2ccc(Oc3ccc(Cl)cn3)cc2)nn([C@@H]2CCCN(C(=O)/C=C/C(F)F)C2)c1N` [Example 159, 5-amino-3-{4-[(5-chloropyridin-2-yl)oxy]phenyl}-1-{(3R)-1-[(2E)-4,4-difluorobut-2-enoyl]piperidin-3-yl}-1H-pyrazole-4-carboxamide], the pIC50 in the test on Human B cells (B-cell) is 8.55; in test [1], 8.89; against human EGFR kinase domain, 6.51.

Turning to `NC(=O)c1c(-c2ccc(Oc3ccc(Cl)cn3)cc2)nn(C2CCCN(C(=O)/C=C/CF)C2)c1N` (stereo not shown) [Example 160], the pIC50 in the test with Human B cells (B-cell) was 8.54; in test [1], 8.26; on human EGFR kinase domain, 6.05.

Turning to `NC(=O)c1c(-c2ccc(Oc3cccc(C(F)(F)F)n3)cc2)nn([C@@H]2CCCN(C(=O)/C=C/C(F)F)C2)c1N` [Example 163, 5-amino-1-{(3R)-1-[(2E)-4,4-difluorobut-2-enoyl]piperidin-3-yl}-3-(4-{[6-(trifluoromethyl)pyridin-2-yl]oxy}phenyl)-1H-pyrazole-4-carboxamide], the pIC50 in the test on Human B cells (B-cell) was 9.04; in test [1] it was 8.89.

In the case of `NC(=O)c1c(-c2ccc(Oc3cccc(C(F)(F)F)n3)cc2)nn([C@@H]2CCCN(C(=O)/C=C/CF)C2)c1N` [Example 164, 5-amino-1-{(3R)-1-[(2E)-4-fluorobut-2-enoyl]piperidin-3-yl}-3-(4-{[6-(trifluoromethyl)pyridin-2-yl]oxy}phenyl)-1H-pyrazole-4-carboxamide], the results for the pIC50 (with Human B cells (B-cell); in test [1]; on human EGFR kinase domain) were 7.94, 8.49 and 5.47, respectively.

In the case of `C=C(F)C(=O)N1CCC[C@@H](n2nc(-c3ccc(Oc4cccc(C(F)(F)F)n4)cc3)c(C(N)=O)c2N)C1` [Example 165], in test [1], the pIC50 was 8.36.

On to `N#C/C=C/C(=O)N1CCC[C@@H](n2nc(-c3ccc(Oc4cccc(C(F)(F)F)n4)cc3)c(C(N)=O)c2N)C1` [Example 166, 5-amino-1-{(3R)-1-[(2E)-3-cyanoprop-2-enoyl]piperidin-3-yl}-3-(4-{[6-(trifluoromethyl)pyridin-2-yl]oxy}phenyl)-1H-pyrazole-4-carboxamide], for which the pIC50 in test [1] was 8.66.

One may read the pIC50 as the negative decadic logarithm of the IC50, by convention in mol/L.
